Where two headings read alike, the source gives them in different places.
Assays:
HDAC = conditions: order of magnitude of affinity for HDAC; cited from earlier work
BJFs (ATCC) = assay: HDAC and DNMT1 gene expression in BJFs treated with VPA; format: cell-based
Description: FIG. 4C is a bar graph reporting HDAC and DNMT1 gene expression in BJFs (ATCC) treated with […] Valproic acid (VPA) for 7 days.
Expression levels for shRNA-targeted genes and pluripotency transcription factor were quantified by real-time RT-PCR. Briefly, total RNA was prepared from cultures using Trizol Reagent (Life Technology) and the RNeasy Mini RNA isolation kit (Qiagen) with DNase I digestion according to manufacturer's protocol. Total RNA (1 μg) from each sample was subjected to oligo(dT)-primed reverse transcription (Invitrogen) to cDNA. Real-time PCR reactions were performed with PCR master mix on a 7300 real-time PCR system (Applied Biosystems). For each sample, 1 μl of diluted cDNA (1:10) was added as template in the PCR reactions. Expression levels were compared to those in untreated and non-targeting shRNA control cells relative to cyclophillin.

mouse embryos = conditions: mice, when properly dosed; cited from earlier work
[1] = system: Mouse embryonic fibroblasts; conditions: Recombinant protein, cited from earlier work
Human fibroblasts = conditions: Retroviral infection, cited from earlier work
[2] = used as antiepileptic drug during pregnancy; a few percent of born children; cited from earlier work
[3] = system: Human adipose tissue derived adult stem cells; assay: ES cell-like colony formation of hADS cells pre-treated with HDAC inhibitor, then OSKM lentivirus; format: cell-based
Description: Human adipose tissue derived adult stem cells were maintained at 37° C. in 95% humidity and 5% CO2 in Dulbecco's modified eagle medium (DMEM, Cell Application) containing 10% fetal bovine serum, 0.5% penicillin and streptomycin. Cells were grown, trypsinized and counted, then diluted in the above standard growth medium to achieve appropriate plating density (1×10^5 cells/well in 6 well plate, Corning) prior to HDAC inhibitor treatment.
Pre-treatment. […] The cell culture medium was changed every other day with new treatment.
Lentivirus infection. Lentivirus that over-expresses mouse Oct-4, Sox2, c-Myc, and Klf4 was purchased from Millipore, (Billerica, Mass.). One day before lentivirus infection, human adipose tissue-derived cells with or without HDAC inhibitor pretreatment were trypsinized and plated at a density of 1×10^5 cells/well in a 6 well plate (Corning) using standard growth medium described above. The following day, the medium was replaced with 1 ml of fresh medium containing 0.6 ug/ml of polybrene (Sigma-Aldrich, St. Louis, Mo.), and thawed lentivirus (MOI 75) was added directly to the wells following the manufacturer's instruction. Cells were maintained at 37° C. in 95% humidity and 5% CO2 incubator overnight. On the next day, lentiviral infection was repeated after cells were washed 3 times with 1×PBS. Lentivirus infected cells were maintained in the standard growth medium for 4˜5 days and trypsinized, and plated on irradiated MEF feeder layers (ATCC, Manassas, Va.) with mTeSR medium (Stem Cell Technology).

[4] = system: Human adipose tissue derived adult stem cells; assay: Immunohistochemistry for Sox-2 and Oct4 in ES cell-like colonies from hADS cells; format: cell-based; conditions: pre-treatment with TSA
Description: Cells were fixed with fixative (Ethanol:acetic acid:H2O=7:2:1) for 10 minutes. After rinse 3 times with 10% FBS in 1×PBS for 5 min each and cells were incubated I hrs with primary antibodies for Oct4 (1:200 dilution, Abeam), or Sox2 (1:200 dilution, Abeam) in 10% FBS containing 0.2% saponin (Sigma) and following alexaFluor-conjugated secondary antibody (1:200 dilution, Invitrogen).

[5] = 5 days pre-treatment, 9 days after OSKM viral infection
[6] = 5 days pre-treatment, 11 days after OSKM viral infection

Compound	Affinity Range (HDAC)	other results
CN(C)c1ccc(C(=O)NCc2ccc(/C=C/C(=O)NO)cc2)cc1 [SK-7041]	nM	–
Oxamflatin	uM	–
O=C(/C=C/c1ccc(CNC(=O)c2ccc(N3CCCC3)cc2)cc1)NO [SK-7068]	nM	–
CC(=O)N[C@@H](CSC(=S)NCCCC[S+](C)[O-])C(=O)O (some centres unmarked) [SFN-N-acetylcysteine (SFN-NAC), SFN-N-acetylcysteine]	uM	–
C[S+]([O-])CCCCNC(=S)SC[C@H](N)C(=O)O (some centres unmarked) [SFN-cysteine (SFN-Cys), SFN-cysteine]	uM	–
O=C(CCCCCCC(=O)Nc1cccnc1)NO [Pyroxamide]	uM	–
O=C(/C=C/c1ccc(CN(CCO)CCc2c[nH]c3ccccc23)cc1)NO [NVP-LAQ824]	nM	–
S=C=NCCCCc1ccccc1 [Phenylbutyl isothiocyanate]	uM	–
CCN(CC)Cc1ccc2cc(COC(=O)Nc3ccc(C(=O)NO)cc3)ccc2c1 [ITF2357]	nM	–
CCCC(CCC)C(=O)O [VPA, Valproic acid]	mM	DNMT1 gene expression (BJFs (ATCC); BJFs, 500 nM VPA, 7 days, vs control (MC) cells, P<0.005): significantly up regulated; HDAC1 gene expression (BJFs (ATCC); BJFs, 500 nM VPA, 7 days, vs control (MC) cells, P<0.01): significantly up regulated; SIRT4 gene expression (BJFs (ATCC); BJFs, 500 nM VPA, 7 days, vs control (MC) cells, P<0.05): significantly up regulated; Compensatory expression of HDACs (HDAC9, HDAC5, HDAC11, SIRT4, SIRT5) (BJFs (ATCC); treatment of cells with VPA (FIG. 4C)): induced; Teratogenicity (mouse embryos): teratogenic in the majority of mouse embryos; Efficiency ([1]; 3 iPS factors (OSK) + VPA): 0.002%; Efficiency ([1]; 4 iPS factors (OSKM) + VPA): 0.006%; Efficiency (Human fibroblasts; 2 iPS factors (OS) + VPA): 0.001%; Efficiency (Human fibroblasts; 3 iPS factors (OSK) + VPA): 1%; Birth defects (neural tube closure defects and other malformations) [2]: may induce birth defects; ES cell-like colony formation [3, 5]: Colonies displaying characteristics of embryonic stem cells or reprogrammed cells were observed; ES cell-like colony formation [3, 6]: Colonies displaying characteristics of embryonic stem cells or reprogrammed cells were observed
CCCC(=O)[O-].[Na+] [Butyrate/Sodium Butyrate, Sodium Butyrate]	mM	–
O=C(CCCCCCCC(=O)NO)NO [ABHA (azeleic bishydroxamic acid), azeleic bishydroxamic acid]	uM	–
O=C(/C=C/c1cccc(S(=O)(=O)Nc2ccccc2)c1)NO [PDX-101]	uM	–
CCCC(=O)OCOC(=O)C(C)(C)C [AN-9, Pivaloyloxymethyl butyrate, Pivaloyloxymethyl butyrate]	uM	–
O=C(CCCCCN1C(=O)c2cccc3cccc(c23)C1=O)NO [Scriptaid]	–	ES cell-like colony formation [3, 5]: ES cell-like colony formation was observed; ES cell-like colony formation [3, 6]: multiple colonies displaying morphologies consistent with embryonic stem cells or reprogrammed cells were observed
CC(=O)Nc1ccc(C(=O)Nc2ccccc2N)cc1 [CI-994(N-acetyl dinaline), N-acetyl dinaline]	nM	–
C=CCSSCC=C [Diallyl disulfide (DADS), Diallyl disulfide]	uM	–
CC(/C=C/C(=O)NO)=C\[C@@H](C)C(=O)c1ccc(N(C)C)cc1 [TSA, Trichostatin A]	nM	Sox-2 and Oct4 expression in ES cell-like colonies [4]: showed Sox-2 and Oct4 expression; ES cell-like colony formation [3, 5]: multiple colonies displaying morphologies consistent with embryonic stem cells or reprogrammed cells were observed; ES cell-like colony formation [3, 6]: ES cell-like colony formation was observed; Increase in colony formation vs no pretreatment ([3]; 5 days pre-treatment, then OSKM lentivirus): two-fold; Number of ES cell-like colonies ([3]; First Experiment): 24; Number of ES cell-like colonies ([3]; Second Experiment): 21; Somatic cell reprogramming efficiency (number of formed colonies) ([3]; pre-treatment prior to four-factor transfection, TSA 1 μM): increased
C[S+]([O-])CCCCN=C=S (centres unmarked) [Sulforaphane (SFN), Sulforaphane]	uM	–
O=C(CCCCCCC(=O)NO)NO [SBHA (suberic bishydroxamate), suberic bishydroxamate]	uM	–
Suberoylanilide hydroxamic acid	uM	–
Nc1ccccc1NC(=O)c1ccc(CNC(=O)OCc2cccnc2)cc1 [MS-275 (same as MS-27-275)]	nM	–
Nc1ccccc1NC(=O)c1ccc(CNc2nccc(-c3cccnc3)n2)cc1 [MGCD0103]	nM	–
O=C(/C=C/c1cccc(C(=O)NO)c1)NO [m-Carboxycinnamic acid bishydroxamic acid]	uM	–
